Measured values as given in US9023878B2 (Neurophyxia B.V., priority 2010, dated 2015).

Experiments:
[1] = Solubility/encapsulation in cyclodextrin solutions (excess 2-IB, three days, filtered, RP-HPLC)
Protocol: An excess of 2-IB was added to the cyclodextrin solutions, mixed at room temperature for three days and then filtered to remove non-encapsulated) non-solubilised 2-IB.

[2] = Visual inspection after 12 hours storage at 5° C.; type: physicochemical
[3] = Solvent selection: stepwise solvent addition, solubility judged visually
Protocol: Solubility of 2-IB was determined in the following solvents: • 0.9% Sodium chloride in water • 5% Dextrose in water • N,N-dimethylacetamide • N,N-dimethylformamide • Dimethyl sulfoxide • Ethanol • Propolyene glycol • Polyethyleneglycol 400 • Corn oil
Approximately 10 mg of 2-IB was weighed into a 10 ml tube. Subsequently, small aliquots (100 μl-100 μl-200 μl-400 μl-800 μl-1600 μl-3200 μl) of the respective solvents were added stepwise. After each addition, the solution was mixed intensively and visually judged for solubility.
Therefore the experiment was repeated for propylene glycol but with addition of 100 μl 1N hydrochloric acid after 200 μl propylene glycol (i.e. 10 mg 2-IB+200 μl propylene glycol+100 μl 1N hydrochloric acid).
When an acidified 2-IB formulation in 5% dextrose is prepared, the pH after acidification is approximately 2 for nominal 2-IB concentrations in the range 1-5 mg/ml.

[4] = Solubility of 2-IB in 10% SBE-CD at different pH adjusted with 0.1 M citric acid (HPLC); type: physicochemical
[5] = Solubility of 2-IB (5 mg/ml) using different acids; type: physicochemical
[6] = Physical stability of saturated 10% SBE-CD solutions, 5 days at 5° C. and RT; type: physicochemical; settings: saturated solution; further: key: −: Precipitation of 2-IB; +: no precipitation
[7] = Solubility of 2-IB in water at different pH; type: physicochemical; settings: pH 3.5

With `N=C1N[C@H]2[C@H](CS[C@H]2CCCCC(=O)O)N1` [Formulation 2-IB, 2-iminobiotin] as the compound, how does the “concentration of 2-IB” value ([1]; 0% cyclodextrin, Citrate pH 4.0, final pH 4.0) read?
The value was 1700 µg/mL.

And the “concentration of 2-IB” value ([1]; 0% cyclodextrin, Citrate pH 5.0, final pH 5.0)?
Its value is 600 µg/mL.

What about the “concentration of 2-IB” value ([1]; 0% cyclodextrin, WFI, final pH 6.5) of the same compound?
Its value is 400 µg/mL.

What about the “concentration of 2-IB” value ([1]; 2.5% HP-CD, Citrate pH 4.0, final pH 4.2) of the same compound?
Its value is 2500 µg/mL.

What about the “concentration of 2-IB” value ([1]; 2.5% HP-CD, Citrate pH 5.0, final pH 5.1) of the same compound?
The value was 900 µg/mL.

What about the “concentration of 2-IB” value ([1]; 2.5% HP-CD, WFI, final pH 6.5) of the same compound?
Its value is 500 µg/mL.

What about the “concentration of 2-IB” value ([1]; 2.5% SBE-CD, Citrate pH 4.0, final pH 4.3) of the same compound?
Its value is 3700 µg/mL.

What about the “concentration of 2-IB” value ([1]; 2.5% SBE-CD, Citrate pH 5.0, final pH 5.0) of the same compound?
The value was 1900 µg/mL.

And the “concentration of 2-IB” value ([1]; 2.5% SBE-CD, WFI, final pH 6.3)?
The value was 700 µg/mL.

And the “concentration of 2-IB” value ([1]; 5% HP-CD, Citrate pH 4.0, final pH 4.3)?
Its value is 3000 µg/mL.

And the “concentration of 2-IB” value ([1]; 5% HP-CD, Citrate pH 5.0, final pH 5.1)?
The value was 1200 µg/mL.

What about the “concentration of 2-IB” value ([1]; 5% HP-CD, WFI, final pH 6.5) of the same compound?
Its value is 500 µg/mL.

What about the “concentration of 2-IB” value ([1]; 5% SBE-CD, Citrate pH 4.0, final pH 4.4) of the same compound?
The value was 5500 µg/mL.

And the “concentration of 2-IB” value ([1]; 5% SBE-CD, Citrate pH 5.0, final pH 5.1)?
Its value is 2900 µg/mL.

What about the “concentration of 2-IB” value ([1]; 5% SBE-CD, WFI, final pH 6.5) of the same compound?
Its value is 1000 µg/mL.

What about the “concentration of 2-IB” value ([1]; 10% HP-CD, Citrate pH 4.0, final pH 4.5) of the same compound?
Its value is 4100 µg/mL.

What about the “concentration of 2-IB” value ([1]; 10% HP-CD, Citrate pH 5.0, final pH 5.2) of the same compound?
Its value is 1600 µg/mL.

And the “concentration of 2-IB” value ([1]; 10% HP-CD, WFI, final pH 6.5)?
Its value is 600 µg/mL.

What about the “concentration of 2-IB” value ([1]; 10% SBE-CD, Citrate pH 4.0, final pH 4.6) of the same compound?
The value was 8000 µg/mL.

What about the “concentration of 2-IB” value ([1]; 10% SBE-CD, Citrate pH 5.0, final pH 5.1) of the same compound?
Its value is 4600 µg/mL.

What about the “concentration of 2-IB” value ([1]; 10% SBE-CD, WFI, final pH 6.5) of the same compound?
Its value is 1500 µg/mL.

And the “concentration of 2-IB” value ([1]; 20% HP-CD, Citrate pH 4.0, final pH 4.7)?
The value was 5100 µg/mL.

What about the “concentration of 2-IB” value ([1]; 20% HP-CD, Citrate pH 5.0, final pH 5.3) of the same compound?
The value was 2100 µg/mL.

What about the “concentration of 2-IB” value ([1]; 20% HP-CD, WFI, final pH 6.6) of the same compound?
Its value is 900 µg/mL.

What about the “concentration of 2-IB” value ([1]; 20% SBE-CD, Citrate pH 4.0, final pH 4.9) of the same compound?
The value was 11400 µg/mL.

And the “concentration of 2-IB” value ([1]; 20% SBE-CD, Citrate pH 5.0, final pH 5.3)?
The value was 7000 µg/mL.

What about the “concentration of 2-IB” value ([1]; 20% SBE-CD, WFI, final pH 6.7) of the same compound?
Its value is 2400 µg/mL.

What about the “concentration of 2-IB” value ([1]; 40% HP-CD, Citrate pH 4.0, final pH 5.0) of the same compound?
The value was 5600 µg/mL.

What about the “concentration of 2-IB” value ([1]; 40% HP-CD, Citrate pH 5.0, final pH 5.6) of the same compound?
The value was 2600 µg/mL.

What about the “concentration of 2-IB” value ([1]; 40% HP-CD, WFI, final pH 6.7) of the same compound?
Its value is 1200 µg/mL.

And the “Appearance after 12 hours at 5° C.” value ([2]; saturated in 50 mM Citrate pH 3.0)?
Its value is “Precipitated”.

What about the “Appearance after 12 hours at 5° C.” value ([2]; saturated in 50 mM Citrate pH 3.5) of the same compound?
Its value is “Precipitated”.

And the “Appearance after 12 hours at 5° C.” value ([2]; saturated in 50 mM Citrate pH 4.0)?
Its value is “Precipitated”.

And the “Appearance after 12 hours at 5° C.” value ([2]; saturated in 50 mM Citrate pH 4.5)?
The value was “Precipitated”.

What about the “Appearance after 12 hours at 5° C.” value ([2]; saturated in 50 mM Citrate pH 5.0) of the same compound?
Its value is “Precipitated”.

What about the “concentration of fully dissolved and stable solution” value ([3]; 10 mg 2-IB+200 μl propylene glycol+100 μl 1N hydrochloric acid) of the same compound?
The value was 33000 µg/mL.

What about the “solubility, visually judged” value ([3]; 10 mg in 6400 μl (1.6 mg/ml) of 0.9% NaCl, 5% dextrose, DMA, DMF, DMSO, ethanol, propylene glycol, PEG 400 or corn oil) of the same compound?
Its value is “not sufficiently soluble in any of these solvents”.

What about the “effect of addition of water” value ([3]; 33 mg/ml propylene glycol/hydrochloric acid formulation) of the same compound?
The value was “immediately resulted in precipitation of 2-IB”.

What about the “precipitation, visual observation” value ([3]; acidified 2-IB in 5% dextrose neutralized to pH 7) of the same compound?
The value was “nearly all 2-IB has precipitated out of solution”.

What about the “pH up to which partial neutralization is possible before precipitation” value ([3]; acidified 2-IB in 5% dextrose, nominal 1-5 mg/ml, 0.1% sodium hydroxide) of the same compound?
The value was 3-3.5.

What about the “solubility, visually judged” value ([3]; same solvents after addition of 100 μl of 1N hydrochloric acid) of the same compound?
The value was “fully dissolved in all solvents”.

What about the “solubility with pH-adjustment alone” value ([4]; pH 4.0, without SBE-CD) of the same compound?
The value was 1.72 mg/g.

And the “solubility with pH-adjustment alone” value ([4]; pH 5.0, without SBE-CD)?
Its value is 0.59 mg/g.

And the “pH at which solubility was achieved” value ([5]; HCl)?
Its value is 3.0.

And the “pH at which solubility was achieved” value ([5]; weak acids (acetic acid and citric acid))?
The value was 3.3.

And the “5 days at 5° C.” value ([6]; pH 4.0)?
The value was “−”.

What about the “5 days at RT” value ([6]; pH 4.0) of the same compound?
The value was “+”.

What about the “5 days at 5° C.” value ([6]; pH 4.5) of the same compound?
Its value is “−”.

And the “5 days at RT” value ([6]; pH 4.5)?
Its value is “+”.

What about the “5 days at 5° C.” value ([6]; pH 5.0) of the same compound?
Its value is “−”.

What about the “5 days at RT” value ([6]; pH 5.0) of the same compound?
Its value is “+”.

What about the “5 days at 5° C.” value ([6]; pH 5.1) of the same compound?
The value was “−”.

And the “5 days at RT” value ([6]; pH 5.1)?
The value was “+”.

And the “5 days at 5° C.” value ([6]; pH 5.5)?
Its value is “−”.

What about the “5 days at RT” value ([6]; pH 5.5) of the same compound?
The value was “+”.

And the “5 days at 5° C.” value ([6]; pH 6.2)?
Its value is “−”.

What about the “5 days at RT” value ([6]; pH 6.2) of the same compound?
Its value is “+”.

And the “5 days at 5° C.” value ([6]; pH 7.0)?
Its value is “−”.

What about the “5 days at RT” value ([6]; pH 7.0) of the same compound?
Its value is “+”.

What about the solubility in water [7] of the same compound?
The solubility in water was “around 4.5 mg/ml”.
